According to US10385080B2, “STAT6 inhibitors” (Board of Regents, The University of Texas System, priority 2013, dated 2019):

Tests used:
STAT6 [1] = biological target: T1, STAT6 (Homo sapiens, UniProt P42226); assay: Inhibition of IL-4 (and IL-13) stimulated phosphorylation of STAT6 in Beas-2B cells, western blot; format: cell-based; parameters: endogenous in cells; host or cells: Beas-2B immortalized human airway cells; conditions: dose response
T1 sequence (P42226 1-847): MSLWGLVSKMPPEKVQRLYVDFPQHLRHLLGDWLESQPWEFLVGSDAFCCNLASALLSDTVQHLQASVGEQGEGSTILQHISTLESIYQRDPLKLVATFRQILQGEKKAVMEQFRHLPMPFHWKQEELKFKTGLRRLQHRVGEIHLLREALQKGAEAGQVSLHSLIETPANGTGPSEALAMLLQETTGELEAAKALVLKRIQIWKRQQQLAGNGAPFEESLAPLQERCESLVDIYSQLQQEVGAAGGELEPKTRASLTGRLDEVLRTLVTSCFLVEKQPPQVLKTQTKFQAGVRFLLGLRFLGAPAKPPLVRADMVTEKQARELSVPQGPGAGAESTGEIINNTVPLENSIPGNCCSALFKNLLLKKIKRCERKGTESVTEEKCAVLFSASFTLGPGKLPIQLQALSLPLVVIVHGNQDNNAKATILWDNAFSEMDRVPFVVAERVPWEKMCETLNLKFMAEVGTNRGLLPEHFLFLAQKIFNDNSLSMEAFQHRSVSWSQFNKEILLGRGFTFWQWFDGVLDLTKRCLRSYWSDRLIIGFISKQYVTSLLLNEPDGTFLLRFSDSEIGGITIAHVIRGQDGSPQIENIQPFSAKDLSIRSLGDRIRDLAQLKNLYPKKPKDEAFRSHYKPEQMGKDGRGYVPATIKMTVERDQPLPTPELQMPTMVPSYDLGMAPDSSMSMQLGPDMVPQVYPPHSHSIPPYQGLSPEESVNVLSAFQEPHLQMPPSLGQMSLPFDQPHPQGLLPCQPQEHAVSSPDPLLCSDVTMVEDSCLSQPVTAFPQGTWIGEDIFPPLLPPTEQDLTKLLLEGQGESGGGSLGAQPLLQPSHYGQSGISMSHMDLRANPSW
Description: Compound PM-241H inhibited the phosphorylation of Tyr641 of STAT6 in Beas-2B cells stimulated with IL-4 and IL-13.
(§1) Compounds were screened at 5 μM for their ability to inhibit IL-4 stimulated phosphorylation of STAT6 in Beas-2B immortalized human airway cells. Cells were treated with prodrug for 2 hr and then stimulated with IL-4. After 30 min cells were lysed and pSTAT6 and total STAT6 were measured with western blots (FIG. 7). Without being bound by theory, the inhibition observed is consistent with compounds entering cells, being stripped of the POM groups, binding to the SH2 domain of STAT6, blocking binding to IL-4Rα and preventing phosphorylation of Tyr641. […] Compounds resulting in <10% residual phosphorylation were taken on to MTS cytotoxicity assays and dose response assays. (FIG. 8). The cyclic aromatic amides PM-63I, PM-80I, PM-81I, and PM-86I were very potent with IC50 values from 50-500 nM. […] With the exception of PM-43I, concentrations that inhibit STAT6 phosphorylation are 20-100 fold lower than those resulting in toxicity. STAT6 inhibitors were assayed for their ability to inhibit the phosphorylation of STAT 1, STAT 3, STAT 5, Akt, and FAK, all processes that depend on SH2 domain-phosphotyrosine interactions (Mandal, P. K. et al. 2011). Serum starved MDA-MB-468 breast cancer cells were treated with STAT6 inhibitors for 2 hr and then were stimulated with EGF (See FIGS. 9A and 9B).
Cells or lungs were isolated and lysed in RIPA buffer (9806S; Cell Signaling, Danvers, Mass.), protein was quantified using BCA Protein Assay Reagent (23227; Thermo Fisher Scientific, Rockford, Ill.) and denatured in Laemmli sample buffer (161-0737; Bio-Rad, Hercules, Calif.) according to manufacturer's protocol. Proteins were separated on SDS-Page gels were hand-poured using a standard electrophoresis unit (Bio-Rad, Hecules, Calif.) and transferred to a membrane using iBlot Gel Transfer Device (IB 1001; Invitrogen, Grand Island, N.Y.). Membranes were blocked in 2% FBS PBST and probed for c-Src, p-c-Src, pErk1/2, Erk1/2, p STAT6, STAT6, pSTAT3, STAT3, pSTAT5, STAT5, Shp-1, and β-actin. Signal was detected with a ChemiDoc XRS+ system (BioRad; Hercules, Calif.).

STAT6 [2] = biological target: T1, STAT6; assay: Fluorescence polarization competition with FAM-labelled IL-4Rα Tyr631 phosphopeptide for binding to STAT6; conditions: competition with FAM-Ala-pTyr-Lys-Pro-Phe-Gln-Asp-Leu-Ile-NH2
Text: The following structures as phosphate esters were synthesized and assayed them for the ability to compete with FAM-Ala-pTyr-Lys-Pro-Phe-Gln-Asp-Leu-Ile-NH2, derived from Tyr631 of IL-4Rα, for binding to STAT6 using fluorescence polarization (FAM=5-carboxyfluorescein). The fluorescence polarization methodology was adapted from Wu et al., 1997, which is incorporated herein by reference. Amide bond replacements, cyclic amides, and cyclic lactams in the central part of the compound were explored.

Stat5 = assay: Selectivity: Stat5 phosphorylation in EGF-stimulated MDA-MB-468 cells; format: cell-based; conditions: serum starved MDA-MB-468 cells, 2 hr
Description: as §1

[3] = test system: asthma-related parameters; assay: Dose effect on asthma-related parameters in fungus-challenged mice; format: in vivo
Description: (§2) The issue of toxicity was addressed with the newer synthetic STAT6 peptidomimetic agents 86i and 43i in two ways. First, the inventors determined the effect of each inhibitor on asthma-related parameters in fungus-challenged mice. […] Second, the weights of mice were measured during challenge with the different doses of both STAT6 inhibitors.
Mice were challenged intranasally with a clinical isolate of 4×10^5 A. niger conidia every two days for a total of 8 challenges and treated with 50 μg of the indicated β-agonist, liposome vehicle (DLPC) and/or PM-242H (5 or 50 μg) intranasally as indicated and the allergic airway disease phenotype was determined according to previously described methods (Porter, P. et al. 2009).
Allergic airway disease was assessed as previously described (Porter, P. et al. 2009). Changes in respiratory system resistance (RRS) in response to intravenous acetylcholine challenge, bronchoalveolar lavage (BAL) fluid differential counts, and analysis of lung IL-4, IL-17A and IFN-γ producing cells by enzyme linked immunocell spot assay (ELISpot) were performed as previously described (Lee, S. H. et al. 2003; Polikepahad, S. et al. 2010).

[4] = Toxicity: weights of mice during challenge with different doses; format: in vivo; conditions: different doses
Description: as §2

[5] = other phosphate-containing STAT6 inhibitors
[6] = select phosphate-containing STAT6 inhibitors

Compound | IC50 (STAT6 [2]; [5]) | IC50 (STAT6 [2]; [6]) | other results
C/C(=C\C(=O)N[C@H](C(=O)N1CCC[C@H]1C(=O)N1CCCCc2ccccc21)C(C)(C)C)c1ccc(C(F)(F)P(=O)(OCOC(=O)C(C)(C)C)OCOC(=O)C(C)(C)C)cc1 [PM-80I] |  |  | IC50 (STAT6 [1]): 0.05 to 0.5 µM
C/C(=C\C(=O)N[C@H](C(=O)N1CCC[C@H]1C(=O)N(C)C1CCCCC1)C(C)(C)C)c1ccc(OP(=O)(O)O)cc1 [PM-70I] | 0.23 ± 0.14 µM |  | 
C/C(=C\C(=O)N[C@H](C(=O)N1CCC[C@H]1C(=O)N1CCN(C)CC1)C(C)(C)C)c1ccc(OP(=O)(O)O)cc1 [PM-67I-C] |  | 1.9 ± 0.84 µM | 
C/C(=C\C(=O)N[C@H](C(=O)N1CCC[C@H]1C(=O)Nc1ccccc1)C(C)(C)C)c1ccc(OP(=O)(O)O)cc1 [PM-302H-A] | 0.268 ± 0.07 µM |  | 
CC(C)(C)[C@H](NC(=O)/C=C/c1ccc(OP(=O)(O)O)cc1)C(=O)N1CCC[C@H]1C(=O)N(c1ccccc1)c1ccc(I)cc1 [PM-287H] | 0.073 ± 0.01 µM |  | 
C/C(=C\C(=O)N[C@H](C(=O)N1CCC[C@H]1C(=O)N1CCOCC1)C(C)(C)C)c1ccc(OP(=O)(O)O)cc1 [PM-67I-B] |  | 0.103 ± 0.05 µM | 
C/C(=C\C(=O)N[C@H](C(=O)N1CCC[C@H]1C(=O)N(c1ccccc1)c1ccccc1)C(C)(C)C)c1ccc(OP(=O)(O)O)cc1 [PM-300H-B] | 0.089 ± 0.01 µM |  | 
C/C(=C\C(=O)N[C@H](C(=O)N1CCC[C@H]1C(=O)N1CCc2ccccc21)C(C)(C)C)c1ccc(C(F)(F)P(=O)(OCOC(=O)C(C)(C)C)OCOC(=O)C(C)(C)C)cc1 [PM-63I] |  |  | cross reactivity with Stat5 (Stat5): significant cross reactivity; IC50 (STAT6 [1]): 0.05 to 0.5 µM
C/C(=C\C(=O)N[C@H](C(=O)N1CCC[C@H]1C(=O)N1CCCc2ccccc21)C(C)(C)C)c1ccc(C(F)(F)P(=O)(OCOC(=O)C(C)(C)C)OCOC(=O)C(C)(C)C)cc1 [PM-86I] |  |  | inhibition of airway hyperresponsiveness ([3]; dose of 5 micrograms): intermediately effective; inhibition of airway inflammation ([3]; dose of 5 micrograms): maximally effective; inhibition of lung IL-4 responses ([3]; dose of 5 micrograms): maximally effective; inhibition of airway hyperresponsiveness ([3]; dose of 50 micrograms): maximally effective; lung inflammation and IL-4 responses ([3]; dose of 50 micrograms, to sham-treated levels): rebound; toxicity by weight gain over the period of drug administration [4]: no toxicity; IC50 (STAT6 [1]): 0.05 to 0.5 µM
C/C(=C\C(=O)N[C@H]1CCCCN(CC(=O)N(C)c2ccccc2)C1=O)c1ccc(OP(=O)(O)O)cc1 [PM-28I] |  | 0.63 ± 0.013 µM | 
C/C(=C\C(=O)N[C@H](C(=O)N1CCC[C@H]1C(=O)N(C)c1ccccc1)C(C)(C)C)c1ccc(OP(=O)(O)O)cc1 [PM-301H] | 0.117 ± 0.03 µM |  | 
C/C(=C\C(=O)N[C@H](C(=O)N1CCC[C@H]1/C=C/CCc1ccccc1)C(C)(C)C)c1ccc(OP(=O)(O)O)cc1 [PM-9I] |  | 0.771 ± 0.29 µM | 
C/C(=C\C(=O)N[C@H](C(=O)N1CCC[C@H]1C(=O)N1CCCCC1)C(C)(C)C)c1ccc(OP(=O)(O)O)cc1 [PM-67I-A] |  | 0.37 ± 0.09 µM | 
C/C(=C\C(=O)N[C@H](C(=O)N1CCC[C@H]1CCCCc1ccccc1)C(C)(C)C)c1ccc(OP(=O)(O)O)cc1 [PM-10I] |  | 2.09 ± 0.93 µM | 
C/C(=C\C(=O)NC1CCc2cccc3c2N(C1=O)[C@H](C(=O)N(C)c1ccccc1)C3)c1ccc(OP(=O)(O)O)cc1 (some centres unmarked) [PM-34I] |  | 0.28 ± 0.06 µM | 
C/C(=C\C(=O)N[C@H](C(=O)N1CCC[C@H]1C(=O)N1CCCc2ccccc21)C(C)(C)C)c1ccc(OP(=O)(O)O)cc1 [PM-87I] |  | 0.24 ± 0.13 µM | 
C/C(=C\C(=O)N[C@H](C(=O)N[C@@H](C)C(=O)N(C)c1ccccc1)C(C)(C)C)c1ccc(OP(=O)(O)O)cc1 [PM-26I] | 0.12 ± 0.016 µM |  | 
C/C(=C\C(=O)N[C@H](C(=O)NC1CCCCN(c2ccccc2)C1=O)C(C)(C)C)c1ccc(OP(=O)(O)O)cc1 (some centres unmarked) [PM-60I] |  | 2.33 ± 0.5 µM | 
C/C(=C\C(=O)N[C@H](C(=O)N1CCC[C@H]1C(=O)N1CCc2ccccc2C1)C(C)(C)C)c1ccc(OP(=O)(O)O)cc1 [PM-71-A] |  | 0.05 ± 0.04 µM | 
CCN(CC)C(=O)[C@@H]1CCCN1C(=O)[C@@H](NC(=O)/C=C(\C)c1ccc(OP(=O)(O)O)cc1)C(C)(C)C [PM-302H-B] | 0.377 ± 0.09 µM |  | 
CC(C)(C)[C@H](NC(=O)/C=C/c1ccc(OP(=O)(O)O)cc1)C(=O)N1CCC[C@H]1C(=O)N(c1ccccc1)c1ccccc1 [PM-300H-A] | 0.12 ± 0.04 µM |  | 
C/C(=C\C(=O)N[C@H](C(=O)N1CCC[C@H]1C(=O)N1CCCCC1)C(C)(C)C)c1ccc(C(F)(F)P(=O)(OCOC(=O)C(C)(C)C)OCOC(=O)C(C)(C)C)cc1 [PM-74I] |  |  | IC50 (STAT6 [1]): 0.05 µM
C/C(=C\C(=O)N[C@H](C(=O)N1CCC[C@H]1C(=O)N(c1ccccc1)c1ccc(I)cc1)C(C)(C)C)c1ccc(OP(=O)(O)O)cc1 [PM-286H] | 0.053 ± 0.01 µM |  | 
C/C(=C\C(=O)N[C@H](C(=O)N1CCC[C@H]1C(=O)N1CCc2ccccc2C1)C(C)(C)C)c1ccc(C(F)(F)P(=O)(OCOC(=O)C(C)(C)C)OCOC(=O)C(C)(C)C)cc1 [PM-81I] |  |  | IC50 (STAT6 [1]): 0.05 to 0.5 µM
C/C(=C\C(=O)N[C@H](C(=O)N1CCC[C@H]1C(=O)N1CCc2ccccc21)C(C)(C)C)c1ccc(OP(=O)(O)O)cc1 [PM-59I] |  | 0.26 ± 0.09 µM | 
